Data as given in ChEMBL document CHEMBL2010684, “JBIR-78 and JBIR-95: phenylacetylated peptides isolated from Kibdelosporangium sp. AK-AA56” (2012).

Tested on: Micrococcus luteus
Assay: Antimicrobial activity against Micrococcus luteus at 10 ug after 24 hrs by paper disk method
Type: functional
Conditions: read-out: DIZ

Compound CC(C)[C@H](NC(=O)Cc1ccccc1)C(=O)N[C@H](CC(=O)O)C(=O)N[C@@H](C)C(=O)N[C@@H](C(=O)NCC(=O)N[C@H](C)C(=O)N[C@@H](Cc1ccccc1)C(=O)O)[C@@H](O)C(C)C has a zone of inhibition at 10 µg/disc of 7.1 mm.
CC[C@H]1OC(=O)[C@H](C)[C@@H](O[C@H]2C[C@@](C)(OC)[C@@H](O)[C@H](C)O2)[C@H](C)[C@@H](O[C@@H]2O[C@H](C)C[C@H](N(C)C)[C@H]2O)[C@](C)(O)C[C@@H](C)C(=O)[C@H](C)[C@@H](O)[C@]1(C)O [ERYTHROMYCIN] gave a zone of inhibition at 10 µg/disc of 25 mm.
